According to publication PMC11766267 (International Journal of Molecular Sciences, 2025):
Several values for one entry are separate records, joined by “and”; a condition that tells them apart may be missing. Equal values may be shown once. Read-outs that look alike come from different tables or passages of the source.

What was measured:
[1] = MTT cytotoxicity assay, normal cell line WI-38; format: cell-based, human; details: human, WI-38 cells (normal human lung fibroblasts), normal (non-cancer) cell line, 24 h treatment
How it was run: (§1)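 Formazan produced from MTT by the cells was taken up in dimethyl sulfoxide for measurement.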

HCT-116 = assay: MTT cytotoxicity assay, HCT-116; format: cell-based; details: Homo sapiens, 24 h treatment, mean ± SD of triplicate
How it was run: as §1

[2] = biological target: T1, aromatase (CYP19A, EC 1.14.14.14) (Homo sapiens, UniProt P11511); assay: biochemical
T1 construct: Microsomal samples were isolated from tissue using the Microsome Isolation Kit; tissue BioVision K983-100; host or cells: microsomes from an unnamed tissue
T1 sequence (P11511 1-503): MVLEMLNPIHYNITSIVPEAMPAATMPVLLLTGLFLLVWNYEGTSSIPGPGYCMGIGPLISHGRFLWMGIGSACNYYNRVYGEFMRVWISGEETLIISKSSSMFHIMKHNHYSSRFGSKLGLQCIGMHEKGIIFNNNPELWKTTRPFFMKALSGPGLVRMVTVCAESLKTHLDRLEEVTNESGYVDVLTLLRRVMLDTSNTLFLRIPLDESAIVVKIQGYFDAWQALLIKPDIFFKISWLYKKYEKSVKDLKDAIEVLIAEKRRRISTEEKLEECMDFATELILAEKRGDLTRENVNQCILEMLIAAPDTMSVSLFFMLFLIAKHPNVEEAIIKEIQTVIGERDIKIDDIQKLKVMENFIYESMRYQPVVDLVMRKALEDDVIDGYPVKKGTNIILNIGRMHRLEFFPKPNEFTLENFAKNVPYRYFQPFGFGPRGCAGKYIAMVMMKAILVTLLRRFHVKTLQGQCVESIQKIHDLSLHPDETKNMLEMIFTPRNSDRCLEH

CDK2 = CDK2 (Homo sapiens, UniProt P24941); assay: In vitro protein kinase inhibition assay (ELISA kit), CDK2
HeLa = assay: MTT cytotoxicity assay, HeLa; format: cell-based; details: Homo sapiens, 24 h treatment, mean ± SD of triplicate
How it was run: as §1

MCF-7 [3] = assay: MTT cytotoxicity assay, MCF-7; format: cell-based, human; details: Homo sapiens, MCF7, 24 h, 24 h treatment, mean ± SD of triplicate
How it was run: as §1

[4] = test system: HCT-116, MDA-MB-231, HeLa, and MCF-7; assay: MTT cytotoxicity assay, ranges stated over several cell lines; format: cell-based; details: Homo sapiens, range over the compounds named
How it was run: as §1

VEGFR-2 = VEGFR-2 (Homo sapiens, UniProt P35968); assay: In vitro protein kinase inhibition assay (ELISA kit), VEGFR-2
Chain of VEGFR-2 (P35968 20-1356): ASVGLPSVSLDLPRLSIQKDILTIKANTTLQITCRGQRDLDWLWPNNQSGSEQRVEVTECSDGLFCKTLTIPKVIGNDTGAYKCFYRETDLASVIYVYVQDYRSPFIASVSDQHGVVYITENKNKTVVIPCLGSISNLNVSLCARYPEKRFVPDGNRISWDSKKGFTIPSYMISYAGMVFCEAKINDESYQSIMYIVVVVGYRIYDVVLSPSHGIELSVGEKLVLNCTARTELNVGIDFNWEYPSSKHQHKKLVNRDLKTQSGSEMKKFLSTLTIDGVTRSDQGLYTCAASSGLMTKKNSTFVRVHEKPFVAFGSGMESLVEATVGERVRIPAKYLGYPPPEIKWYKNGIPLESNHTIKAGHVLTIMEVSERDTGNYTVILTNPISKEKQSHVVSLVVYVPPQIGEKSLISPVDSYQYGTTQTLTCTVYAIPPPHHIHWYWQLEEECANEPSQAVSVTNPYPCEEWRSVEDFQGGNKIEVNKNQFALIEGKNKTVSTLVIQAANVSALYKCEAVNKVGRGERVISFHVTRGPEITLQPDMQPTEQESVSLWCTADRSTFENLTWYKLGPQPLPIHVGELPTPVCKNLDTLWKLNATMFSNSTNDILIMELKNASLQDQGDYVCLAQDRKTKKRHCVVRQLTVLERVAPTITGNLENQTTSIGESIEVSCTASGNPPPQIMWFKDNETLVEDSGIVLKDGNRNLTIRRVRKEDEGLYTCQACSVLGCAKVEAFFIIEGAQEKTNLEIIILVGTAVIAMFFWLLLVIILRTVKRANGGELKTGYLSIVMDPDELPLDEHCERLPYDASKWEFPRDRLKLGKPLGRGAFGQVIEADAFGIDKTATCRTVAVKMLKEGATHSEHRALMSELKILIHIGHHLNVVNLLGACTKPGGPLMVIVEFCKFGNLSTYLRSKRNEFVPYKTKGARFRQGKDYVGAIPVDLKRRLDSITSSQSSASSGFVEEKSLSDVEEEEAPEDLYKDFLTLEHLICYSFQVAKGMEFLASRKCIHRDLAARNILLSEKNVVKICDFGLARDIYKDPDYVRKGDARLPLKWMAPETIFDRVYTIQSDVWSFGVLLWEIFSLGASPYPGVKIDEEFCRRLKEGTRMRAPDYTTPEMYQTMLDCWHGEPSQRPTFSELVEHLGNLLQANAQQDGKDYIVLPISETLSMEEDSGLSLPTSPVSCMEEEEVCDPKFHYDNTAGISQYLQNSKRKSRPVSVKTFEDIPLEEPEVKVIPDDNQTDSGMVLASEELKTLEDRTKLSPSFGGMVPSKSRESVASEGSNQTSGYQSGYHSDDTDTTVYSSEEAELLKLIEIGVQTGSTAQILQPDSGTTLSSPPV

MDA-MB-231 = assay: MTT cytotoxicity assay, MDA-MB-231; format: cell-based; details: Homo sapiens, 24 h treatment, mean ± SD of triplicate
How it was run: as §1

HER2 = HER2 (Homo sapiens, UniProt P04626); assay: In vitro protein kinase inhibition assay (ELISA kit), HER2
Chain of HER2 (P04626 23-1255): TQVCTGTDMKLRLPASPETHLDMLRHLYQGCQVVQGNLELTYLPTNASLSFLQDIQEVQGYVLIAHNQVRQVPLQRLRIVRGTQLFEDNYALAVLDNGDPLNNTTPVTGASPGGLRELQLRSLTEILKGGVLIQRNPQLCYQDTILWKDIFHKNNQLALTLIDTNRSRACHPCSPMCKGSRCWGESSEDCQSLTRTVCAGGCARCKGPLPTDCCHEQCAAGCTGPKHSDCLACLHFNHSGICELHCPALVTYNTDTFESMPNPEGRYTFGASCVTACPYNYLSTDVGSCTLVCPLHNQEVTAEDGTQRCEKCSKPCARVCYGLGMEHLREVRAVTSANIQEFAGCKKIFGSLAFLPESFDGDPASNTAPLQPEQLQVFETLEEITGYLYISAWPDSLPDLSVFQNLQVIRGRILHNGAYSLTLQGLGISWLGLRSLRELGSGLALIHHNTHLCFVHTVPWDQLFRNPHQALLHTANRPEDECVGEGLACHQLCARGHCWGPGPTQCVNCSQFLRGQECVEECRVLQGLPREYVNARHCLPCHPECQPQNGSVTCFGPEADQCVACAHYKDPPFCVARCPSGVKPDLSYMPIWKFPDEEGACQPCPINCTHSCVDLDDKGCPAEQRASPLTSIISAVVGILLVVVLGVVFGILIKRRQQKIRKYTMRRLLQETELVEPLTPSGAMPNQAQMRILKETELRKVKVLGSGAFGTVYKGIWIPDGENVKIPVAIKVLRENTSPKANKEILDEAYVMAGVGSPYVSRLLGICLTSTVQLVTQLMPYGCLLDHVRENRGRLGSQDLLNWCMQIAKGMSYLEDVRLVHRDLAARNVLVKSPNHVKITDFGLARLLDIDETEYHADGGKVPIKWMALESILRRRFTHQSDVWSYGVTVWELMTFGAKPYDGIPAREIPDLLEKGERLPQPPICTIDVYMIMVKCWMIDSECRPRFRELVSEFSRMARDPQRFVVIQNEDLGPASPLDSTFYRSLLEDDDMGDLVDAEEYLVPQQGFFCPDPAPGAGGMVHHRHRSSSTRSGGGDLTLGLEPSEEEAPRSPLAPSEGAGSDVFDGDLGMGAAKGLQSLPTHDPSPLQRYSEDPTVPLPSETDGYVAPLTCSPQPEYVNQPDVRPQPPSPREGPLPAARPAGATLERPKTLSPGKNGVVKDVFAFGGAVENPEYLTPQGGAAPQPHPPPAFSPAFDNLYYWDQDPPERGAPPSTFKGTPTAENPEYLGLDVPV

MCF-7 [5] = assay: In vitro anti-estrogenic activity assay, MCF-7
MCF-7a = assay: In vitro anti-estrogenic activity assay, MCF-7a
EGFR = EGFR (Homo sapiens, UniProt P00533); assay: In vitro protein kinase inhibition assay (ELISA kit), EGFR
Chain of EGFR (P00533 25-1210): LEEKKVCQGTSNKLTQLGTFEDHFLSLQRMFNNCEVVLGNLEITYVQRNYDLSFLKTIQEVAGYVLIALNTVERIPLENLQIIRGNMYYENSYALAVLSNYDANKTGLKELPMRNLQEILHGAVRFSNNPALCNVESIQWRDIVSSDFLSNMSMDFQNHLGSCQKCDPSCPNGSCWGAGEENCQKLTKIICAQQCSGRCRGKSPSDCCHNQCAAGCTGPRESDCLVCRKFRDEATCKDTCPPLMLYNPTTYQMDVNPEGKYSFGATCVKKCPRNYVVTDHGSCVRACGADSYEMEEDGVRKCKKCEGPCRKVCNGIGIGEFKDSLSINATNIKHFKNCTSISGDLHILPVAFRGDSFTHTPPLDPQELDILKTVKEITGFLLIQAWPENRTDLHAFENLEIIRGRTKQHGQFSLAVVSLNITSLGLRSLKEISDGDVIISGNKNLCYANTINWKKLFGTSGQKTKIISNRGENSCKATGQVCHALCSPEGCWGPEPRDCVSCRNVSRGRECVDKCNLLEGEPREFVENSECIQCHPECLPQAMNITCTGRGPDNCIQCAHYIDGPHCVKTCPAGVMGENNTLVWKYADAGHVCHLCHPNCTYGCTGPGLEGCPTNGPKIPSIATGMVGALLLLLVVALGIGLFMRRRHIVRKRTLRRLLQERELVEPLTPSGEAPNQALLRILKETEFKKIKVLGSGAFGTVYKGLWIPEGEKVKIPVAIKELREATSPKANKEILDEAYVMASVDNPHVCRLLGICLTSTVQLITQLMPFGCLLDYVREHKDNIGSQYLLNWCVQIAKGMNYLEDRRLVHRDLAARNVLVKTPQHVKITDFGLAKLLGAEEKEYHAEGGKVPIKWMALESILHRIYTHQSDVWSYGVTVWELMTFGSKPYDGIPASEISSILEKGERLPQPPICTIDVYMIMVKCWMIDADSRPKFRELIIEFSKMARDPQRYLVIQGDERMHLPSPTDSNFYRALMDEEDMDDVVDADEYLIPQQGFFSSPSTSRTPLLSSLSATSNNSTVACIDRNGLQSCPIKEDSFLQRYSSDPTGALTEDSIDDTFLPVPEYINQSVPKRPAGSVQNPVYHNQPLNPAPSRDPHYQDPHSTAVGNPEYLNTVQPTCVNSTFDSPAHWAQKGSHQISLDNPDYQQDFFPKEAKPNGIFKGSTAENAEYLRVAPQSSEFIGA

[6] = cell count relative to the control (17β-E2)

Compound: COc1cccc(C(=O)/C=C/c2ccc(OCc3ccccc3)cc2)c1 [Compound 4q, (E)-3-(4-(Benzyloxy)phenyl)-1-(3-methoxyphenyl)prop-2-en-1-one]
- IC50 at 24 h [1]: > 100 µM
- IC50 (HCT-116): 17.1 ± 1.3 µM
- Inhibition (%) Aromatase ([2]; 0.01 µM, individual Data 1-3): 6.6% and 8.9%
- Inhibition (%) Aromatase ([2]; 0.1 µM, individual Data 1-3): 17.9% and 20.7%
- Inhibition (%) Aromatase ([2]; 1 µM, individual Data 1-3): 54% and 53.8%
- Inhibition (%) Aromatase ([2]; 10 µM, individual Data 1-3): 81.5% and 83.9%
- Inhibition (%) Aromatase ([2]; 100 µM, individual Data 1-3): 91.6% and 93.8%
- IC50 ([2]; mean ± SD of triplicate, approximate values, read-out: Aromatase Inhibition IC50): 901 nM and 801 nM
- inhibition at 0.01 µM ([2]; read-out: Inhibition (%) Aromatase, 0.01 µM, individual Data 1-3): 7.8%
- inhibition at 0.1 µM ([2]; read-out: Inhibition (%) Aromatase, 0.1 µM, individual Data 1-3): 19%
- inhibition at 1 µM ([2]; read-out: Inhibition (%) Aromatase, 1 µM, individual Data 1-3): 55.9%
- inhibition at 10 µM ([2]; read-out: Inhibition (%) Aromatase, 10 µM, individual Data 1-3): 82%
- inhibition at 100 µM ([2]; read-out: Inhibition (%) Aromatase, 100 µM, individual Data 1-3): 92%
- IC50 (CDK2): ~170 nM
- Inhibition (%) CDK2 (CDK2; 0.01 µM, individual Data 1-3): 24.8% and 25.2%
- Inhibition (%) CDK2 (CDK2; 0.1 µM, individual Data 1-3): 41.7% and 42.2%
- Inhibition (%) CDK2 (CDK2; 1 µM, individual Data 1-3): 70.9% and 71.2%
- Inhibition (%) CDK2 (CDK2; 10 µM, individual Data 1-3): 87.8% and 88.3%
- Inhibition (%) CDK2 (CDK2; 100 µM, individual Data 1-3): 96% and 96.6%
- inhibition at 0.1 µM (CDK2; read-out: Inhibition % at 0.1 µM CDK2, 0.1 µM, the data between the highest and lowest values): 41.9%
- inhibition at 0.01 µM (CDK2; read-out: Inhibition (%) CDK2, 0.01 µM, individual Data 1-3): 25.1%
- inhibition at 0.1 µM (CDK2; read-out: Inhibition (%) CDK2, 0.1 µM, individual Data 1-3): 41.9%
- inhibition at 1 µM (CDK2; read-out: Inhibition (%) CDK2, 1 µM, individual Data 1-3): 71.1%
- inhibition at 10 µM (CDK2; read-out: Inhibition (%) CDK2, 10 µM, individual Data 1-3): 88.1%
- inhibition at 100 µM (CDK2; read-out: Inhibition (%) CDK2, 100 µM, individual Data 1-3): 96.3%
- IC50 (HeLa): 22.6 ± 1.7 µM
- IC50 (MCF-7 [3]): 11.6 ± 0.9 µM
- IC50 ([4]; HCT-116 and HeLa, read-out: IC50 values, range against HCT-116 and HeLa): 6590 to 22600 nM
- IC50 ([4]; MDA-MB-231 and MCF-7, read-out: IC50 values, range against MDA-MB-231 and MCF-7): 2080 to 13600 nM
- IC50 (VEGFR-2): 287 ± 10 nM
- Inhibition (%) VEGFR2 (VEGFR-2; 0.01 µM, individual Data 1-3): 16.9%
- Inhibition (%) VEGFR2 (VEGFR-2; 0.1 µM, individual Data 1-3): 38.9% and 39.1%
- Inhibition (%) VEGFR2 (VEGFR-2; 1 µM, individual Data 1-3): 66.7% and 66.4%
- Inhibition (%) VEGFR2 (VEGFR-2; 10 µM, individual Data 1-3): 87.1% and 87.6%
- Inhibition (%) VEGFR2 (VEGFR-2; 100 µM, individual Data 1-3): 95.4% and 95.9%
- inhibition at 0.01 µM (VEGFR-2; read-out: Inhibition (%) VEGFR2, 0.01 µM, individual Data 1-3): 17%
- inhibition at 0.1 µM (VEGFR-2; read-out: Inhibition (%) VEGFR2, 0.1 µM, individual Data 1-3): 39%
- inhibition at 1 µM (VEGFR-2; read-out: Inhibition (%) VEGFR2, 1 µM, individual Data 1-3): 66.8%
- inhibition at 10 µM (VEGFR-2; read-out: Inhibition (%) VEGFR2, 10 µM, individual Data 1-3): 87.3%
- inhibition at 100 µM (VEGFR-2; read-out: Inhibition (%) VEGFR2, 100 µM, individual Data 1-3): 95.7%
- IC50 (MDA-MB-231): 13.6 ± 1.1 µM
- IC50 (HER2): ~144 nM
- Inhibition (%) Her2 (HER2; 0.01 µM, individual Data 1-3): 25% and 25.9%
- Inhibition (%) Her2 (HER2; 0.1 µM, individual Data 1-3): 47.70% and 48.76%
- Inhibition (%) Her2 (HER2; 1 µM, individual Data 1-3): 68.30% and 69.5%
- Inhibition (%) Her2 (HER2; 10 µM, individual Data 1-3): 86.89% and 87.78%
- Inhibition (%) Her2 (HER2; 100 µM, individual Data 1-3): 95.7% and 96.9%
- inhibition at 0.1 µM (HER2; read-out: Inhibition % at 0.1 µM HER2, 0.1 µM, the data between the highest and lowest values): 48%
- inhibition at 0.01 µM (HER2; read-out: Inhibition (%) Her2, 0.01 µM, individual Data 1-3): 25.6%
- inhibition at 0.1 µM (HER2; read-out: Inhibition (%) Her2, 0.1 µM, individual Data 1-3): 48%
- inhibition at 1 µM (HER2; read-out: Inhibition (%) Her2, 1 µM, individual Data 1-3): 68.9%
- inhibition at 10 µM (HER2; read-out: Inhibition (%) Her2, 10 µM, individual Data 1-3): 87.3%
- inhibition at 100 µM (HER2; read-out: Inhibition (%) Her2, 100 µM, individual Data 1-3): 96.2%
- Cell Proliferation MCF-7 % (MCF-7 [5]; [6]): 37%
- Cell Proliferation MCF-7 Cell Count (MCF-7 [5]; mean ± SD of triplicate): 6874 ± 245
- Reduction of growth/cell count (inhibition) in MCF-7 (MCF-7 [5]; relative to control): 63%
- Cell Proliferation MCF-7a % (MCF-7a; [6]): 99%
- Cell Proliferation MCF-7a Cell Count (MCF-7a; mean ± SD of triplicate): 20,630 ± 595
- Inhibition in MCF-7a (MCF-7a; relative to control): 1%
- IC50 (EGFR): 151 ± 5 nM
- Inhibition (%) EGFR (EGFR; 0.01 µM, individual Data 1-3): 22.9% and 24.2%
- Inhibition (%) EGFR (EGFR; 0.1 µM, individual Data 1-3): 45.2% and 47.5%
- Inhibition (%) EGFR (EGFR; 1 µM, individual Data 1-3): 71.9% and 70.2%
- Inhibition (%) EGFR (EGFR; 10 µM, individual Data 1-3): 86.9% and 90%
- Inhibition (%) EGFR (EGFR; 100 µM, individual Data 1-3): 95.6% and 97.9%
- inhibition at 0.01 µM (EGFR; read-out: Inhibition (%) EGFR, 0.01 µM, individual Data 1-3): 23.4%
- inhibition at 0.1 µM (EGFR; read-out: Inhibition (%) EGFR, 0.1 µM, individual Data 1-3): 46.8%
- inhibition at 1 µM (EGFR; read-out: Inhibition (%) EGFR, 1 µM, individual Data 1-3): 72%
- inhibition at 10 µM (EGFR; read-out: Inhibition (%) EGFR, 10 µM, individual Data 1-3): 88.4%
- inhibition at 100 µM (EGFR; read-out: Inhibition (%) EGFR, 100 µM, individual Data 1-3): 96.3%
